{"source": "patent US20110197373A1", "about": "“Depilatory Article” (priority 2010, published 2011)", "tested_on": "unwanted hair on skin", "assay": "removal of hair from the skin with the depilatory article / thioglycolate salts", "assay_type": "in vivo, human", "settings": "thioglycolate salt as keratin reducing agent", "description": "A second aspect being a method of removing hair from the skin is also provided by the present invention, comprising the steps of: • (a) applying a depilatory article according to the present invention to a surface of skin, preferably human skin, • (b) leaving said depilatory article in contact with the skin for a period of at least 1 minute, preferably 2 to 10 minutes, more preferably 2 to 8 minutes, • (c) removing said depilatory article from the surface of the skin, and • (d) preferably rubbing, scraping, rinsing or wiping the surface of the skin in the area to which the depilatory article was applied. The formulation was disposed to a thickness of 0.3 mm, width of 1.5 cm and length of 3.5 cm on a cast HDPE 85% LLDPE 15% polymer blend film (23 microns in thickness and cut to 4.6 cm in length and 3.2 cm in width) using a stencil and wiper blade, such that the area covered by the formulation was centered along the width of the film and 1 mm away from the perimeter edge of one end of the film's length.", "data": [{"smiles": "O=C([O-])CS.[K+]", "note": "[potassium thioglycolate]", "values": [{"measurement": "effectiveness at removing hair from the skin", "value": "effective at removing hair from the skin, even at low doses"}]}]}
